Molecular target: T1, ΔF508-CFTR (Homo sapiens, UniProt P13569, DEL508-508)
T1 construct: expressed in transfected cells
Test: ΔF508-CFTR correction, membrane potential optical (FRET/VIPR) assay
Type: cell-based
Settings: NIH3T3 mouse fibroblasts stably expressing ΔF508-CFTR; for Emax: read-out: % Efficacy
From the text: Assays for Detecting and Measuring ΔF508-CFTR Correction Properties of Compounds
Membrane potential optical methods for assaying ΔF508-CFTR modulation properties of compounds
The optical membrane potential assay utilized voltage-sensitive FRET sensors described by Gonzalez and Tsien (See Gonzalez, J. E. and R. Y. Tsien (1995) “Voltage sensing by fluorescence resonance energy transfer in single cells” Biophys J 69(4): 1272-80, and Gonzalez, J. E. and R. Y. Tsien (1997) “Improved indicators of cell membrane potential that use fluorescence resonance energy transfer” Chem Biol 4(4): 269-77) in combination with instrumentation for measuring fluorescence changes such as the Voltage/Ion Probe Reader (VIPR) (See Gonzalez, J. E., K. Oades, et al. (1999) “Cell-based assays and instrumentation for screening ion-channel targets” Drug Discov Today 4(9): 431-439).
These voltage sensitive assays are based on the change in fluorescence resonant energy transfer (FRET) between the membrane-soluble, voltage-sensitive dye, DiSBAC2(3), and a fluorescent phospholipid, CC2-DMPE, which is attached to the outer leaflet of the plasma membrane and acts as a FRET donor. Changes in membrane potential (Vm) cause the negatively charged DiSBAC2(3) to redistribute across the plasma membrane and the amount of energy transfer from CC2-DMPE changes accordingly. The changes in fluorescence emission were monitored using VIPR™ II, which is an integrated liquid handler and fluorescent detector designed to conduct cell-based screens in 96- or 384-well microtiter plates.
1. Identification of Correction Compounds
To identify small molecules that correct the trafficking defect associated with ΔF508-CFTR; a single-addition HTS assay format was developed. The cells were incubated in serum-free medium for 16 hrs at 37° C. in the presence or absence (negative control) of test compound. As a positive control, cells plated in 384-well plates were incubated for 16 hrs at 27° C. to “temperature-correct” ΔF508-CFTR. The cells were subsequently rinsed 3× with Krebs Ringers solution and loaded with the voltage-sensitive dyes. To activate ΔF508-CFTR, 10 μM forskolin and the CFTR potentiator, genistein (20 μM), were added along with Cl^−-free medium to each well. The addition of Cl^−-free medium promoted Cl^− efflux in response to ΔF508-CFTR activation and the resulting membrane depolarization was optically monitored using the FRET-based voltage-sensor dyes.
NIH3T3 mouse fibroblasts stably expressing ΔF508-CFTR are used for optical measurements of membrane potential. The cells are maintained at 37° C. in 5% CO2 and 90% humidity in Dulbecco's modified Eagle's medium supplemented with 2 mM glutamine, 10% fetal bovine serum, 1×NEAA, β-ME, 1× pen/strep, and 25 mM HEPES in 175 cm^2 culture flasks. For all optical assays, the cells were seeded at 30,000/well in 384-well matrigel-coated plates and cultured for 2 hrs at 37° C. before culturing at 27° C. for 24 hrs for the potentiator assay. For the correction assays, the cells are cultured at 27° C. or 37° C. with and without compounds for 16-24 hours Electrophysiological Assays for assaying ΔF508-CFTR modulation properties of compounds

T1 sequence (P13569 with tags, fused parts or gaps DEL508-508): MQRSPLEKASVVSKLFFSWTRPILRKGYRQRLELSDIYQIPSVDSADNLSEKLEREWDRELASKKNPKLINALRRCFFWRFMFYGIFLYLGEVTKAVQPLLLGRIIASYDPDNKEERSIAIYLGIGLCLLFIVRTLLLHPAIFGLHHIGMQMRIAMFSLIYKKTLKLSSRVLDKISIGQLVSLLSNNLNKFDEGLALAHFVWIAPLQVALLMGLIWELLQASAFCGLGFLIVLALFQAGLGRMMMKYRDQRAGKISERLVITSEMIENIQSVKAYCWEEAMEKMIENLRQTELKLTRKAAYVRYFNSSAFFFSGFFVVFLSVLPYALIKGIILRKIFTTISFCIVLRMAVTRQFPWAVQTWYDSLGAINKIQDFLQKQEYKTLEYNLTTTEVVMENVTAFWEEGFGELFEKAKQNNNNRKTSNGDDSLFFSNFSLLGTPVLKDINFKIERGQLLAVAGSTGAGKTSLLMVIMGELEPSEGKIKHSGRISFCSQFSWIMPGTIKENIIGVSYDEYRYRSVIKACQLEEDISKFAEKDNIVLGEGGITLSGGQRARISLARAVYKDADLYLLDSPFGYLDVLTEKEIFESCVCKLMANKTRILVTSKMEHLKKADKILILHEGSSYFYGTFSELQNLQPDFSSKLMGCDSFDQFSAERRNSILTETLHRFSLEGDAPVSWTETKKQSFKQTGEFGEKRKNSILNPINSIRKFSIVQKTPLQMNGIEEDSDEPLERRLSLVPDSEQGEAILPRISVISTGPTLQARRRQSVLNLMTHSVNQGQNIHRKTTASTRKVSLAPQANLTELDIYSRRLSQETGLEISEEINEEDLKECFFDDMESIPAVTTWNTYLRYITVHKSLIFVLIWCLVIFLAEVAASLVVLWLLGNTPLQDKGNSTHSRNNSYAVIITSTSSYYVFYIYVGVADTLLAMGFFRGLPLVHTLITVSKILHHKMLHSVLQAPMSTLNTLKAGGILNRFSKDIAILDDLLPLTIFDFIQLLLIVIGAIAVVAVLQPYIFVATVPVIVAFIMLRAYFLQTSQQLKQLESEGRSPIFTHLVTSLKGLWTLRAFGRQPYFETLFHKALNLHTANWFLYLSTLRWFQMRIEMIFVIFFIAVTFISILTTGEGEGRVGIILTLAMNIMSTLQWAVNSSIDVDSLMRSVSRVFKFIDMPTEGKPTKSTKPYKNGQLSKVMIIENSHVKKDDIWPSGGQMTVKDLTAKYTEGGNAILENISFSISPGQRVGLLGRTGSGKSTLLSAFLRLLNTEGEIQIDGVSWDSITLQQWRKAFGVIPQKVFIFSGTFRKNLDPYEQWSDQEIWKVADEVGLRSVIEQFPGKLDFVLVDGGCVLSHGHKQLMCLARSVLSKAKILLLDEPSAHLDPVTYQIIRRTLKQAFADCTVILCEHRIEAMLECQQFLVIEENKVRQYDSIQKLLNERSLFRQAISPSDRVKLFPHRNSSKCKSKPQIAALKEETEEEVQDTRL

Structure (SMILES)	EC50 [nM]	Emax [%]
Cc1ncc(NC(=O)C2(c3ccc4c(c3)OC(F)(F)O4)CC2)nc1-c1ccc[nH]c1=O [Compound 54]	< 2000	50 to 100
Cc1ccc(NC(=O)C2(c3ccc4c(c3)OC(F)(F)O4)CC2)nc1-c1cc[nH]c(=O)c1 [Compound 44]	< 2000	50 to 100
CCOC(=O)NCCn1cc(-c2nc(NC(=O)C3(c4ccc5c(c4)OC(F)(F)O5)CC3)ccc2C)ccc1=O [Compound 81]	< 2000	> 100
COc1cccc(C2(C(=O)Nc3ccc(C)c(-c4c[nH]c(=O)c(C)c4)n3)CC2)c1 [Compound 63]	< 2000	50 to 100
Cc1ncc(NC(=O)C2(c3ccc4c(c3)OC(F)(F)O4)CC2)nc1-c1ccc(=O)[nH]c1 [Compound 55]	< 2000	50 to 100
COc1ccc(C2(C(=O)Nc3ccc(C)c(-c4ccc[nH]c4=O)n3)CC2)cc1 [Compound 10]	< 2000	50 to 100
Cc1ccc(NC(=O)C2(c3ccc4c(c3)OC(F)(F)O4)CC2)nc1-c1ccc(=O)[nH]c1C [Compound 40]	< 2000	> 100
Cc1c[nH]c(=O)c(-c2nc(NC(=O)C3(c4ccc5c(c4)CCO5)CC3)ccc2C)c1 [Compound 83]	< 2000	50 to 100
Cc1ccc(NC(=O)C2(c3ccc4c(c3)OC(F)(F)O4)CC2)nc1-c1ccc(=O)n(CCO)c1 [Compound 20]	< 2000	> 100
COc1ncc(C)cc1-c1nc(NC(=O)C2(c3ccc4c(c3)OC(F)(F)O4)CC2)ccc1C [Compound 8]	< 2000	50 to 100
Cc1c[nH]c(=O)c(-c2nc(NC(=O)C3(c4ccc5c(c4)OC(F)(F)O5)CC3)cc(C)c2C)c1 [Compound 91]	< 2000	> 100
Cc1cc(NC(=O)C2(c3ccc4c(c3)OC(F)(F)O4)CC2)nc(-c2ccc(=O)[nH]c2)c1 [Compound 27]	< 2000	> 100
COc1ncc(-c2nc(NC(=O)C3(c4ccc5c(c4)OC(F)(F)O5)CC3)ccc2C)cc1N [Compound 9]	< 2000	> 100
COc1ccc(C2(C(=O)Nc3ccc(C)c(-c4cccnc4OC)n3)CC2)cc1 [Compound 7]	< 2000	50 to 100
COc1cc(-c2cc(C)cc(NC(=O)C3(c4ccc5c(c4)OC(F)(F)O5)CC3)n2)ccn1 [Compound 3]	< 2000	> 100
CCc1ccc(NC(=O)C2(c3ccc4c(c3)OC(F)(F)O4)CC2)nc1-c1ccc(=O)[nH]c1 [Compound 5]	< 2000	50 to 100
Cc1ccc(NC(=O)C2(c3ccc4c(c3)OC(F)(F)O4)CC2)nc1-c1c[nH]c(=O)c(C)c1 [Compound 6]	< 2000	> 100
Cc1ccc(NC(=O)C2(c3ccc4c(c3)OC(F)(F)O4)CC2)nc1-c1c[nH]c(=O)c(F)c1 [Compound 39]	< 2000	50 to 100
Cc1ccc(NC(=O)C2(c3ccc4c(c3)OC(F)(F)O4)CC2)nc1-c1ccc[nH]c1=O [Compound 46]	< 2000	50 to 100
Cc1ccc(NC(=O)C2(c3ccc4c(c3)CCO4)CC2)nc1-c1ccc(=O)[nH]c1 [Compound 78]	< 2000	50 to 100
Cc1cc(NC(=O)C2(c3ccc4c(c3)CCO4)CC2)nc(-c2ccc[nH]c2=O)c1C [Compound 114]	< 2000	50 to 100

Structure (SMILES)	EC50 [nM]	Emax [%]
COc1cc(-c2nc(NC(=O)C3(c4ccc5c(c4)OC(F)(F)O5)CC3)ccc2C)ccn1 [Compound 11]	< 2000	> 100
Cc1cc(NC(=O)C2(c3ccc4c(c3)CCO4)CC2)nc(-c2ccc(=O)[nH]c2)c1 [Compound 68]	< 2000	50 to 100
COc1ccc(C2(C(=O)Nc3ccc(C)c(-c4c[nH]c(=O)c(C)c4)n3)CC2)cc1Cl [Compound 62]	< 2000	50 to 100
CC(=O)Nc1cc(-c2nc(NC(=O)C3(c4ccc5c(c4)OC(F)(F)O5)CC3)ccc2C)c[nH]c1=O [Compound 4]	< 2000	50 to 100
COc1cc(-c2nc(NC(=O)C3(c4ccc5c(c4)CCO5)CC3)cc(C)c2C)ccn1 [Compound 102]	< 2000	50 to 100
Cc1cc(NC(=O)C2(c3ccc4c(c3)OC(F)(F)O4)CC2)nc(-c2ccc(=O)[nH]c2)c1C#N [Compound 96]	< 2000	> 100
Cc1ccc(NC(=O)C2(c3ccc4c(c3)OC(F)(F)O4)CC2)nc1-c1cc[nH]c(=O)c1Cl [Compound 86]	< 2000	> 100
COc1ccc(-c2nc(NC(=O)C3(c4ccc5c(c4)OC(F)(F)O5)CC3)cc(C)c2C)cn1 [Compound 57]	< 2000	> 100
Cc1ccc(NC(=O)C2(c3ccc4c(c3)OC(F)(F)O4)CC2)nc1-c1ccc(=O)[nH]c1 [Compound 12]	< 2000	50 to 100
COc1ccc(-c2cc(C)cc(NC(=O)C3(c4ccc5c(c4)OC(F)(F)O5)CC3)n2)cn1 [Compound 38]	< 2000	> 100
COc1ncccc1-c1nc(NC(=O)C2(c3ccc4c(c3)CCO4)CC2)cc(C)c1C [Compound 100]	< 2000	> 100
COc1ncc(-c2nc(NC(=O)C3(c4ccc5c(c4)OC(F)(F)O5)CC3)ccc2C)cc1C(=O)N(C)C [Compound 73]	< 2000	50 to 100
Cc1cc(NC(=O)C2(c3ccc4c(c3)CCO4)CC2)nc(-c2ccc[nH]c2=O)c1 [Compound 69]	< 2000	50 to 100
Cc1ccc(NC(=O)C2(c3ccc4c(c3)OC(F)(F)O4)CC2)nc1-c1ccn(C)c(=O)c1 [Compound 41]	< 2000	> 100
Cc1cc(NC(=O)C2(c3ccc4c(c3)OC(F)(F)O4)CC2)nc(-c2ccc(=O)[nH]c2C)c1 [Compound 117]	< 2000	> 100
Cc1ccc(NC(=O)C2(c3ccc4c(c3)OCO4)CC2)nc1-c1ccc(=O)[nH]c1 [Compound 49]	< 2000	50 to 100
Cc1ccc(NC(=O)C2(c3ccc4c(c3)OC(F)(F)O4)CC2)nc1-c1cc(Cl)c[nH]c1=O [Compound 85]	< 2000	> 100
CCc1ccc(NC(=O)C2(c3ccc4c(c3)OC(F)(F)O4)CC2)nc1-c1ccc(OC)nc1 [Compound 30]	< 2000	50 to 100
Cc1ccc(NC(=O)C2(c3ccc4c(c3)OC(F)(F)O4)CC2)nc1-c1ccc(=O)[nH]c1O [Compound 28]	< 2000	50 to 100
Cc1cc(NC(=O)C2(c3ccc4c(c3)OC(F)(F)O4)CC2)nc(-c2ccc[nH]c2=O)c1 [Compound 17]	< 2000	> 100
Cc1cc(NC(=O)C2(c3ccc4c(c3)OC(F)(F)O4)CC2)nc(-c2cc[nH]c(=O)c2)c1C [Compound 67]	< 2000	> 100
